Measured values: article PMC12631437, “Evaluation of the Activity of 4‑Quinolones against Multi-Life Stages of Plasmodium spp” (ACS Omega, 2025)
In brackets after ≈: the same amount, converted by molar mass.

Experiments:
[1] = tested on: Plasmodium falciparum 3D7 sensitive strain; experiment: SYBR Green growth assay, asexual blood stages, 3D7 sensitive strain; assay type: cell-based; conditions: Plasmodium falciparum, 3D7, 72 h, asexual blood stages, 3D7 sensitive strain, 72 h; read-out: IC50
Procedure: (§1) Parasite strains SB1-A6, 7G8, V1/S, and HB3 were acquired from BEI-MR4, while the ATQ R1 strain, carrying a V259L gene mutation, was generated in-house. […] Parasitemia was monitored using Giemsa-stained blood smears.
(§2) Bioassays were conducted with synchronized ring-stage parasites using sorbitol synchronization. Antimalarial compounds were evaluated in 96-well plates, and parasite growth was assessed using a SYBR Green-based fluorescence assay The assays were conducted when the parasite quantity reached at least 70% of the ring stage. Compounds were initially added at specific concentrations in the first wells, followed by serial dilution (1:2) ranging from 20 μM to 0.009 μM. Subsequently, a solution containing parasites in RPMI medium at a hematocrit of 2% was added to each well, and the parasites were then incubated for 72 h.
(§3) The IC50 values were determined using concentration–response curves generated in GraphPad 8 software. Additionally, the resistance index was calculated by comparing IC50 values obtained for the sensitive 3D7 strain with those of the resistant strains.

P. falciparum HB3 strain = experiment: SYBR Green growth assay, asexual blood stages, HB3 strain; assay type: cell-based, Plasmodium falciparum; conditions: Plasmodium falciparum; HB3 strain, 72 h; read-out: IC50
Procedure: as §1, §2, §3

[2] = tested on: P. falciparum V1/S strain; experiment: microbe, parasite or virus in culture; assay type: cell-based, Plasmodium falciparum; conditions: Plasmodium falciparum, 72 h
Procedure: (§4) Healthy blood samples for parasite culture were obtained from voluntary donors (approved under protocol #28176720.9.0000.0011), processed to remove white blood cells, and stored at 2 °C–8 °C for up to 15 days. Parasite strains SB1-A6, 7G8, V1/S, and HB3 were acquired from BEI-MR4, while the ATQ R1 strain, carrying a V259L gene mutation, was generated in-house. Infected erythrocytes were cultured in RPMI 1640 medium supplemented with Hepes, sodium bicarbonate, glucose, Albumax, and gentamicin, […], and incubated in a 5% CO2, 5% O2, and 90% N2 gas mixture at 37 °C with daily medium changes. Parasitemia was monitored using Giemsa-stained blood smears.
as §2
(§5) To assess parasite growth, the culture medium was replaced with a lysis solution (Trisbase: 49.31%, EDTA: 30.00%, Saponin: 0.16%, Triton: 0.02%) containing the fluorescent dye SYBR Green (Sigma). After a 30 min incubation, fluorescence readings were taken to determine the 50% inhibitory concentration (IC50) of parasite growth. The IC50 values were determined using concentration–response curves generated in GraphPad 8 software. Additionally, the resistance index was calculated by comparing IC50 values obtained for the sensitive 3D7 strain with those of the resistant strains.

P. falciparum 7G8 strain = experiment: SYBR Green growth assay, asexual blood stages, 7G8 strain; assay type: cell-based, Plasmodium falciparum; conditions: Plasmodium falciparum; 7G8 strain, 72 h; read-out: IC50
Procedure: as §4, §2, §5

[3] = tested on: P. falciparum SB1-A6 strain; experiment: SYBR Green growth assay, asexual blood stages, SB1-A6 strain; assay type: cell-based, Plasmodium falciparum; conditions: Plasmodium falciparum, 72 h
Procedure: as §4, §2, §5

[4] = tested on: P. falciparum ATQ_R1 strain; experiment: SYBR Green growth assay, asexual blood stages, ATQ_R1 strain; assay type: cell-based, Plasmodium falciparum; conditions: Plasmodium falciparum, 72 h
Procedure: as §4, §2, §5

P. vivax ookinetes = experiment: Ex vivo P. vivax ookinete formation assay with patient isolates; assay type: cell-based, Plasmodium vivax; conditions: Plasmodium vivax, 24 h, 10 μM, n = 6 patients, read-out: P. vivax ookinete formation inhibition (median)
Procedure: Participants were recruited from patients diagnosed with P. vivax malaria via Giemsa-stained blood smears at CEPEM in Porto Velho, Rondônia, Brazil (#28176720.9.0000.0011). Criteria included: P. vivax parasitemia >2000 parasites/μL, age 18–85, no severe malaria, no concomitant diseases, nonpregnant, and consent to study procedures. Approximately 10 mL of venous blood was collected into heparin-coated vials, maintained at 37 °C, and transported to PIVEM for DMFA. Malaria treatment followed Brazilian Ministry of Health guidelines and was unaffected by study participation. […] Erythrocytes were washed with incomplete RPMI-1640 medium by centrifugation at 1500 rpm for 10 min to remove leukocytes. […] The sample was centrifuged once at 450 g for 15 min without a brake. After centrifugation, the pellet remaining at the interface was collected and washed twice at 2000 g for 5 min. […] The parasites were incubated for 24 h at a temperature of 21–24 °C. After this period, the activity of the compounds was determined by microscopy, counting 100 fields to determine the parasitemia per μL in each sample, and counting the mature and immature ookinetes. […] Red blood cells were then washed with incomplete RPMI-1640 medium through centrifugation at 1500 rpm for 10 min to remove leukocytes. […] The sample was centrifuged once at 2000 rpm for 15 min without brake. After centrifugation, the remaining pellet at the interface was collected and washed twice at 2000 rpm for 5 min. […] Parasites were incubated for 24 h at a temperature of 21–24 °C. After this period, compound activity was determined by microscopy counting in 100 fields to determine parasitemia per μL in each sample.

HepG2 cells = experiment: Mitochondrial toxicity, HepG2 cells cultured in glucose or galactose (resazurin); assay type: cell-based; conditions: HepG2 under either condition (glucose or galactose), 3.125–50 μM, 24 h
Procedure: To evaluate mitochondrial toxicity, HepG2 cells were cultured in RPMI-1640 medium under two metabolic conditions: one group was maintained in standard RPMI supplemented with 2 g/L glucose (glucose condition), while the second group was gradually adapted to rely on galactose as the primary energy source. For this adaptation, glucose levels were reduced by 20% every 2 days until reaching a final concentration of 20% of the original glucose amount. On the day of the assay, the […] cells were cultured in glucose-free RPMI medium supplemented with 10 mM galactose. When cells reached 80% confluence, they were detached using 2 mL of trypsin-EDTA solution (0.2 g of EDTA) for 5 min at 37 °C, then resuspended in fresh medium and centrifuged at 100 × g for 1 min. After centrifugation, cells were counted using a Neubauer chamber and seeded at […] per well in 96-well plates containing 180 μL of culture medium. Plates were incubated at 37 °C with 5% CO2 for 12–16 h to allow for cell adhesion. […] After treatment, 40 μL of a 0.15 mg/mL resazurin solution (RSZ) was added to each well and incubated for an additional 5 h. RSZ is a nontoxic, cell-permeable blue dye that is reduced by metabolically active cells to highly fluorescent pink resorufin. Fluorescence was measured using a fluorimeter with excitation/emission at 560/590 nm. Cell viability was calculated relative to untreated controls (set at 100%), determined using GraphPad Prism 8.

164/GFP = conditions: strain 164/GFP; cited from earlier work
TM90C2B = conditions: strain TM90C2B; cited from earlier work
[5] = tested on: P. falciparum oocysts in An. freeborni; parameters: method as in Sáenz et al.; conditions: early stage gametocyte treatments; ref Sáenz et al.; cited from earlier work
[6] = tested on: P. falciparum salivary gland infections in mosquitoes; parameters: method as in Sáenz et al.; conditions: drug-treated blood at 1 μM, compared to untreated control; ref Sáenz et al.; cited from earlier work
[7] = tested on: P. falciparum hepatic stages; conditions: cited from earlier work

O=C1C(O)=C([C@H]2CC[C@H](c3ccc(Cl)cc3)CC2)C(=O)c2ccccc21 [Atovaquone, atovaquone, reference compound]
IC50 [1]: 1 ± 0.4 nM
IC50 (P. falciparum HB3 strain): 0.7 ± 0.4 nM
IC50 [2]: 9 ± 0.8 nM
IC50 (P. falciparum 7G8 strain): 6 ± 4 nM
IC50 [3]: > 10000 nM
IC50 [4]: > 10000 nM
inhibition at 10 µM (P. vivax ookinetes): 97%
cell survival (HepG2 cells): ≥ 60%

CCCCCCCCCCOc1cc2c(O)c(C(=O)OCC)cnc2cc1OCC [Decoquinate]
IC50 (164/GFP): 10 nM

CCCCCCCc1c(C)[nH]c2cc(F)cc(F)c2c1=O [ELQ-121]
IC50 (TM90C2B): 1.7 nM

CCCCc1cc2c(=O)c(C(=O)OCC)c[nH]c2cc1OCCOc1ccccc1 [ICI 56.780]
reduction in oocyst numbers [5]: 100%
reduction of salivary gland infections [6]: 80%

N[C@@H]1[C@H]2CN(c3nc4c(cc3F)c(=O)c(C(=O)O)cn4-c3ccc(F)cc3F)C[C@@H]12 [trovafloxacin]
IC50 P. falciparum hepatic stages [7]: 21.6 ± 2.6 µg/mL (≈ 51.9 µM)
